We go through five molecules from publication PMC10504751, “Chalcone/1,3,4-Oxadiazole/Benzimidazole hybrids as novel anti-proliferative agents inducing apoptosis and inhibiting EGFR & BRAFV^600E” (BMC Chemistry, 2023).

Each structure is given as a SMILES string. “And” between values parts separate entries of the source, which are not always exact repeats. Equal values may be shown once. Read-outs that look alike come from different tables or passages of the source.

Assay [1] has as its system T-47D. Kind of assay: NCI one-dose SRB anti-proliferative screen. The class given is cell-based, human. Conditions: Homo sapiens, T47D, read-out: Cell growth inhibition %. As for the experimental part: (§1) The twenty-four synthesized compounds were submitted to the National Cancer Institute (NCI), USA. Eighteen hybrids 7a-h, 7k-r, 7u, and 7v were selected by NCI for one-dose assessment of their anti-proliferative activities at 10 µM dose by Sulforhodamine B colorimetric assay. The assessment was performed in 60 cell lines derived from nine tumor subpanels, comprising lung, leukemia, melanoma, colon, renal, CNS, prostate, breast, and ovarian cancer cell lines.
(§2) The methodology of the NCI anti-proliferative screening has been described in details elsewhere (http://www.dtp.nci.nih.gov).

The test system of assay [2] is HCT-116. Description: NCI one-dose SRB anti-proliferative screen. As to conditions: Homo sapiens, read-out: Cell growth inhibition %. In kind it is cell-based, human. As to the method:
as §1, §2

The subject of assay [3] is RXF 393. Description: NCI one-dose SRB anti-proliferative screen. In kind it is cell-based, human. Conditions: Homo sapiens, read-out: Cell growth inhibition %. As for the experimental part:
as §1, §2

The test system of assay [4] is K-562. Description: NCI one-dose SRB anti-proliferative screen. As to conditions: Homo sapiens, K562, read-out: Cell growth inhibition %. The class given is cell-based, human. As to the method: as §1, §2
The test system of assay [5] is MOLT-4. Kind of assay: NCI one-dose SRB anti-proliferative screen. In kind it is cell-based, human. As to conditions: Homo sapiens, read-out: Cell growth inhibition %. As to the method:
as §1, §2

The test system of assay [6] is melanoma LOX-IMVI cell line. Kind of assay: Propidium iodide anti-proliferative assay in LOX-IMVI. As to conditions: for IC50: Homo sapiens, melanoma LOX-IMVI, 48 h incubation; for fold more selective towards LOX-IMVI cell line: LOX-IMVI vs MCF-10 A. The class given is cell-based, human. As to the method:
Consequently, the half-maximal inhibitory concentration (IC50) of these compounds was determined in LOX-IMVI cell line using propidium iodide (PI)^31, 32 with Staurosporine (broad spectrum protein kinase inhibitor) as a reference.
Cells whose cell membranes are damaged or have changed permeability are counted as dead ones. […] The medium was removed; the compounds were added to the plates at 10 µM concentrations (in 0.1% DMSO) in triplicates, followed by incubation for 48 h. DMSO (0.1%) was used as control. After incubation, medium was removed followed by the addition of PI (25 µl, 50µg/mL in water/medium) to each well of the plates. At -80 °C, the plates were allowed to freeze for 24 h, followed by thawing at 25 °C. A fluorometer (Polar-Star BMG Tech) was used to record the readings at excitation and emission wavelengths of 530 and 620 nm for each well. The percentage cytotoxicity of compounds was calculated using the following formula:
Where ATC= Absorbance of treated cells and AC= Absorbance of control.

In assay [7] the target is T1, EGFR (Homo sapiens, UniProt P00533).
T1 construct: EGFR cytoplasmic domain (EGFR-CD, amino acids 645–1186); His6 (N); made in house; host or cells: Sf-9 insect cells (baculovirus; pBlueBacHis2B / pFASTBacHTc)
Description: EGFR-TK inhibitory assay. Conditions: read-out: EGFR Inhibition IC50 ± SEM. In kind it is biochemical.

Assay [8] relates to UACC-257. Description: NCI one-dose SRB anti-proliferative screen. As to conditions: Homo sapiens, read-out: Cell growth inhibition %. In kind it is cell-based. The method, boiled down: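 Single dose, 10 µM; SRB colorimetric read-out; run as part of the 60-line, nine-subpanel tumour panel.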
For assay [9], the target named is BRAF^V600E. Kind of assay: biochemical.
Description: To further denature the protein, heat (70° C) was applied for 5 min. […] 10 µL of each reaction was loaded into the precast plates and electrophoresis was allowed to proceed. After completion of electrophoresis, the front part of the precast gel plate (holding hot ATP) was cut and afterwards cast-off. The dried gel was developed using a phosphor screen.
The subject of assay [10] is A-549. Description: Propidium iodide anti-proliferative assay. The class given is cell-based. As to conditions: Homo sapiens, A549; 48 h incubation; read-out: IC50 ± SEM A-549. The essentials: (§3)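 Cells seeded at 3000-7500 cells/well and grown 24 h at 37 °C, then treated with compounds (10 µM in 0.1% DMSO, triplicate; IC50 runs at varied concentrations) for 48 h. PI added, plates frozen 24 h at -80 °C and thawed, fluorescence read at 530/620 nm; % cytotoxicity versus 0.1% DMSO control.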

Assay [11] concerns Panc-1. Kind of assay: Propidium iodide anti-proliferative assay. In kind it is cell-based. Conditions: Homo sapiens, 48 h incubation, read-out: IC50 ± SEM Panc-1. The method, boiled down:
as §3

Assay [12] concerns MCF-7. Kind of assay: Propidium iodide anti-proliferative assay. The class given is cell-based. Conditions: Homo sapiens, MCF7; 48 h incubation; read-out: IC50 ± SEM MCF-7. The essentials:
as §3

Assay [13] deals with HT-29. Description: Propidium iodide anti-proliferative assay. The class given is cell-based. Conditions: Homo sapiens, 48 h incubation, read-out: IC50 ± SEM HT-29. The essentials:
as §3

Assay [14] has as its system BAX in MCF-7. Description: BAX activation assay.
Description: All reagents were brought to room temperature for at least 30 min before opening (except the human BAX-α Standard). Human BAX-α Standard solution was not be left at room temperature for more than 10 min. Duplicates of all standards, controls, and samples were run. The Assay Layout Sheet was used to determine the number of wells to be used, and any remaining wells were put with the desiccant back into the pouch, and the ziplock was sealed. Unused wells were stored at 4 ◦C. A total of 100 µL of Assay Buffer was pipetted into the S0 (0 pg/mL standard) wells. A total of 100 µL of Standards #1 through #6 was pipetted into the appropriate wells. A total of 100 µL of the samples was pipetted into the appropriate wells. The plate was gently tapped to mix the contents. The plate was sealed and incubated at room temperature on a plate shaker for 1 h at ~500 rpm. The contents of the wells were emptied and washed by adding 400 µL of wash solution to every well. The wash was repeated four more times for a total of five washes. After the final wash, the wells were emptied or aspirated and firmly the plate on a lint-free paper towel was tapped to remove any remaining wash buffer. A total of 100 µL of yellow antibody was pipetted into each well, except the Blank. The plate was sealed and incubated at room temperature on a plate shaker for 1 h at ~500 rpm. The contents of the wells were emptied and washed by adding 400 µL of wash solution to every well. The wash was repeated four more times for a total of five washes. After the final wash, the wells were emptied or aspirated, and the plate was firmly tapped on a lint-free paper towel to remove any remaining wash buffer. A total of 100 µL of blue Conjugate was added to each well, except the Blank. The plate was sealed and incubated at room temperature on a plate shaker for 30 min at ~500 rpm. The contents of the wells were emptied and washed by adding 400 µL of wash solution to every well. The wash was repeated four more times for a total of five washes. After the final wash, the wells were emptied or aspirated and the plate was firmly tapped on a lint-free paper towel to remove any remaining wash buffer. A total of 100 µL of Substrate Solution was pipetted into each well. It was incubated for 30 min at room temperature on a plate shaker at ~500 rpm. A total of 100 µL Stop Solution was pipetted into to each well. The plate reader was blanked against the Blank wells, and the optical density was read at 450 nm. The average net optical density (OD) bound for each standard and sample was calculated by subtracting the average Blank OD from the average OD for each standard and sample. Using linear graph paper, the Average Net OD for each standard versus BAX concentration in each standard were plotted. A straight line was approximated through the points. The concentration of BAX in the unknowns could be determined by interpolation.
The subject of assay [15] is Caspase-8 in MCF-7 breast cancer cells. Description: Caspase-8 assay. The class given is cell-based, human.
Assay [16] deals with Bcl-2 in MCF-7. Description: Bcl-2 inhibition assay.
Description: All reagents were thoroughly mixed without foaming before use. The microwells were washed twice with approximately 300 µL Wash Buffer per well with the thorough aspiration of microwell contents between washes. Care was taken not to scratch the surface of the microwells. After the last wash, the wells were emptied and microwell strips were tapped on an absorbent pad or paper towel to remove excess Wash Buffer. The microwell strips were used immediately after washing or placed upside down on a wet absorbent paper for not longer than 15 min. Wells were not allowed to dry. A total of 100 µL of Sample Diluent was added in duplicate to all standard wells and the blank wells. Standard (1:2 dilution) in duplicate was prepared ranging from 32 to 0.5 ng/mL. A total of 100 µL of Sample Diluent, in duplicate, was added to the blank wells. A total of 80 µL of Sample Diluent, in duplicate, was added to the sample wells. A total of 20 µL of each sample, in duplicate, was added to the designated wells. A total of 50 µL of diluted biotin was added, conjugated to all wells, including the blank wells. It was covered with a plate cover and incubated at room temperature on a microplate shaker at 100 rpm for 2 h. The plate cover was removed and the wells were emptied. Microwell strips were washed times as described in Step 2. A total of 100 µL of diluted Streptavidin-HRP was added to all wells, including the blank wells. It was covered with a plate cover and incubated at room temperature on a microplate shaker at 100 rpm for 1 h. The plate cover was removed and the wells were emptied. Microwell strips were washed three times, as described in Step 2. A total of 100 µL of mixed TMB Substrate Solution was pipetted into all wells, including the blanks. The microwell strips were incubated at room temperature (18 ◦C to 25 ◦C) for about 15 min, on a rotator set at 100 rpm. Direct exposure to intense light was avoided. The point at which the substrate reaction is stopped was determined by the ELISA reader. Many ELISA readers record absorbance only up to 2.0 O.D. Therefore, the color development within individual microwells was watched by the person running the assay, and the substrate reaction was stopped before positive wells were no longer properly detectable. The enzyme reaction was stopped by quickly pipetting 100 µL of Stop Solution into each well, including the blank wells. It was important that the Stop Solution was spread quickly and uniformly throughout the microwells to inactivate the enzyme completely. Results were read immediately after the Stop Solution was added or within one hour if the microwell strips were stored at 2–8 ◦C in the dark. The absorbance of each microwell was read on a spectrophotometer using 450 nm as the primary wavelength.
In assay [17] the test system is Caspase-3 in MCF-7 breast cancer cells. Kind of assay: Caspase-3 assay.
Description: All reagents were allowed to reach room temperature before use. All liquid reagents were gently mixed before use. The number of 8-well strips needed for the assay was determined. These were inserted into the frame(s) for current use. A total of 100 µL of the Standard Diluent Buffer was added to the zero standard wells. Well(s) reserved for chromogen blank were left empty. A total of 100 µL of standards and controls or diluted samples was added to the appropriate microtiter wells. The sample dilution chosen was optimized for each experimental system. The side of the plate was gently tapped on to
mix. Wells were covered with a plate cover and incubated for 2 h at room temperature. The solution was thoroughly aspirated or decanted from the wells and the liquid was discarded; wells were washed four times. […] The side of the plate was gently tapped on to mix. The plate was covered with a plate cover and incubated for 1h at room temperature. The solution was thoroughly aspirated or decanted from wells and the liquid was discarded; wells were washed four times. A total of 100 µL Anti-Rabbit IgG HRP Working Solution was added to each well except the chromogen blank(s). The working dilution was prepared as described in Preparing IgG HRP. Wells were covered with the plate cover and incubated for 30 min at room temperature. The solution was thoroughly aspirated or decanted from the wells and the liquid was discarded. Wells were washed four times. A total of 100 µL of Stabilized Chromogen was added to each well. The liquid in the wells began to turn blue. It was incubated for 30 min at room temperature and in the dark. The incubation time for chromogen substrate was determined by the microtiter plate reader used. Many plate readers have the capacity to record a maximum optical density (O.D.) of 2.0. The O.D. values were monitored, and the substrate reaction was stopped before the O.D. of the positive wells exceeds the limits of the instrument. The O.D. values at 450 nm could only be read after the Stop Solution had been added to each well. A total of 100 µL of Stop Solution was added to each well. The side of the plate was gently tapped to mix. The solution in the wells changed from blue to yellow. The absorbance of each well was read at 450 nm, having blanked the plate reader against a chromogen blank composed of 100 µL each of Stabilized Chromogen and Stop Solution. The plate was read within 2 h after adding the Stop Solution. A curve fitting software was used to generate the standard curve.
The concentrations for unknown samples and controls from the standard curve were read. Value(s) obtained for sample(s) by the appropriate dilution factor were multiplied to correct for the dilution in step 3.
Setting [18] is: T-47D (Breast Cancer), NCI one dose 10 µM.
Setting [19] is: HCT-116 (Colon Cancer), NCI one dose 10 µM.
[20] abbreviates: RXF 393 (Renal Cancer), NCI one dose 10 µM.
The mark [21] stands for this setting: K-562 (Leukemia), NCI one dose 10 µM.
Setting [22] is: MOLT-4 (Leukemia), NCI one dose 10 µM.
The mark [23] stands for this setting: UACC-257 (Melanoma), NCI one dose 10 µM.

T1 sequence (P00533 669-1210): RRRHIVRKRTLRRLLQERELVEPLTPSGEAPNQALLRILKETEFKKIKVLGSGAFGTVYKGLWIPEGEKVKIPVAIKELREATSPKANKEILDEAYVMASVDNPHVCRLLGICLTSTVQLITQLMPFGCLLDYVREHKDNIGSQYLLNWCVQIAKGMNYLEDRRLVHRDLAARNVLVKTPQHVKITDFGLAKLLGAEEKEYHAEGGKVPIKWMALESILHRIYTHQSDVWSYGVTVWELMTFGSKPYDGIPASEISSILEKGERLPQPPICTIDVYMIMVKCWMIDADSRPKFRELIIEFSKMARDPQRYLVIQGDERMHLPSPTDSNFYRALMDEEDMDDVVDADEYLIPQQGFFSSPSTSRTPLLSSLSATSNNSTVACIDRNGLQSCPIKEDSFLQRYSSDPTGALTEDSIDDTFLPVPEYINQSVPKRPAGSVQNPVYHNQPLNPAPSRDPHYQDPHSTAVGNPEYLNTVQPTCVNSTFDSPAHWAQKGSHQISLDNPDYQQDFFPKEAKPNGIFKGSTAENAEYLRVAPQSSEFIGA
BRAF^V600E, sequence (P28028 whole entry V585E): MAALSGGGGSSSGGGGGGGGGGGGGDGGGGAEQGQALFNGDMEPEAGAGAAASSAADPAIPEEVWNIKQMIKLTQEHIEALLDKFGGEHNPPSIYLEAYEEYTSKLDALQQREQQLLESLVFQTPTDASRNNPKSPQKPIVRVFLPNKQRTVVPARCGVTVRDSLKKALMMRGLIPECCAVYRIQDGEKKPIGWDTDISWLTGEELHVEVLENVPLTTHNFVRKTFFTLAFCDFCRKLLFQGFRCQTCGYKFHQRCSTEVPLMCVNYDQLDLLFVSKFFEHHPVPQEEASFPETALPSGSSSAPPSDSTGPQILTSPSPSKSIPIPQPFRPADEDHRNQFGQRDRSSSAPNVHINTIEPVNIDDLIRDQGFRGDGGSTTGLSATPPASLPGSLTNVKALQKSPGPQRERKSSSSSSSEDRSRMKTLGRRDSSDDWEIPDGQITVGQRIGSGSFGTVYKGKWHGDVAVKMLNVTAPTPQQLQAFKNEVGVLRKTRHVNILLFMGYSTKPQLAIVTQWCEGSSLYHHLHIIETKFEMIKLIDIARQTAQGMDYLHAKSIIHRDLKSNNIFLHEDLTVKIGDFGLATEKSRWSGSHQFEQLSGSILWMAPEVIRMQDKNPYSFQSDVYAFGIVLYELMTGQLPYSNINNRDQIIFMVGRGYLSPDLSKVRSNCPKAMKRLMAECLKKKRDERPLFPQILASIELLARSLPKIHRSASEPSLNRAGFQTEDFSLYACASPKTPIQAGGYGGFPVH

For `O=C(CSc1nnc(-c2ccc3[nH]c(-c4ccc(Cl)cc4)nc3c2)o1)Nc1ccc(C(=O)/C=C/c2ccc(Cl)cc2)cc1` [Compound 7g, 2-{5-[2-(4-Chlorophenyl)-1 H-benzo[d]imidazol-5-yl]-1,3,4-oxadiazol-2-ylthio}-N-{4-[(E)-3-(4-chlorophenyl)acryloyl]phenyl}acetamide], the inhibition at 10 µM in [1] (setting [18]) worked out at 12.9%; in assay [2] (setting [19]), 22.2%; in assay [3] (setting [20]), 0%; in assay [4] (setting [21]), 18.6%; in assay [5] (setting [22]), 22.2%; in [8] (setting [23]), 0%. The IC50 in assay [6] came out at 1.05 ± 0.1 µM; in assay [7] it was 1.7 ± 0.2 µM; in assay [9] it was 1 ± 0.2 µM; in assay [10] it was 1.8 ± 0.6 µM; in assay [11], 1.9 ± 0.5 µM; in assay [12], 1.45 ± 0.3 µM. Also, the IC50 in [13] is 2.1 ± 0.6 µM.

`COc1ccc(-c2nc3cc(-c4nnc(SCC(=O)Nc5ccc(C(=O)/C=C/c6ccc(Cl)cc6)cc5)o4)ccc3[nH]2)cc1` [Compound 7l, 2-{5-[2-(4-Methoxyphenyl)-1 H-benzo[d]imidazol-5-yl]-1,3,4-oxadiazol-2-ylthio}-N-{4-[(E)-3-(4-chlorophenyl)acryloyl]phenyl}acetamide]: the “BAX Conc” value in assay [14] (MCF-7) was 271 pg/mL and 271.600 pg/mL. Further, the “BAX Fold change” value in [14] (MCF-7, vs untreated control) is 32 fold and 32.0 fold. In addition, the inhibition at 10 µM amounted to 7.23% in [1] (T-47D, Breast cancer, NCI one dose); 0% in assay [2] (HCT-116, Colon cancer, NCI one dose); 1.82% in assay [3] (RXF 393, Renal cancer, NCI one dose); 6.12% in assay [4] (K-562, Leukemia, NCI one dose); 11.7% in assay [5] (MOLT-4, Leukemia, NCI one dose); 0% in assay [8] (UACC-257, Melanoma, NCI one dose). For the same molecule, the “Caspase-8 Fold change” value in [15] (MCF-7, vs untreated control) was 9 fold and 9.30 fold. In addition, in assay [15] (MCF-7 breast cancer cells), the “Caspase-8 Conc” value is 1.570 ng/mL. Further, the IC50 in assay [6] is 0.8 ± 0.1 µM; in assay [7], 0.8 ± 0.1 µM; in assay [9] it was 1.9 ± 0.2 µM; in [10], 1.45 ± 0.3 µM; in [11] it was 1.5 ± 0.3 µM; in [12], 1.1 ± 0.1 µM. For the same molecule, in assay [13], the IC50 turned out to be 1.65 ± 0.3 µM. Besides, the “fold more selective towards LOX-IMVI cell line” value in assay [6] is given as 111 fold. The “Bcl-2 Conc” value in assay [16] (MCF-7) is 0.97 ng/mL and 0.975 ng/mL. Moreover, in [16] (MCF-7, vs untreated control), the “Bcl-2 Fold reduction” value is 5.2 fold. Moreover, the “Caspase-3 Fold change” value in [17] (MCF-7, vs untreated control) is 7.50 fold. For the same molecule, the “Caspase-3 Conc” value in assay [17] (MCF-7 breast cancer cells) was determined as 492.50 ± 4.00 pg/mL.

Take `COc1ccc(-c2nc3cc(-c4nnc(SCC(=O)Nc5ccc(C(=O)/C=C/c6ccccc6)cc5)o4)ccc3[nH]2)cc1OC` [Compound 7p, 2-{5-[2-(3,4-Dimethoxyphenyl)-1 H-benzo[d]imidazol-5-yl]-1,3,4-oxadiazol-2-ylthio}-N-{4-[(E)-3-phenylacryloyl]phenyl}acetamide]: the inhibition at 10 µM in [1] (setting [18]) was determined as 13.1%; in assay [2] (setting [19]), 10.3%; in assay [3] (setting [20]), 0%; in assay [4] (setting [21]), 8.36%; in [5] (setting [22]), 19.5%; in assay [8] (setting [23]) it was 0%. Besides, the half-inhibitory concentration (IC50) in assay [6] was determined as 1.2 ± 0.1 µM; in assay [7], 3.5 ± 0.3 µM; in assay [9], 4.2 ± 0.3 µM; in assay [10], 2.5 ± 0.5 µM; in [11], 3.1 ± 0.4 µM; in [12], 2.1 ± 0.2 µM. Besides, in [13], the IC50 amounted to 3.3 ± 0.4 µM.

On to `COc1ccc(-c2nc3cc(-c4nnc(SCC(=O)Nc5ccc(C(=O)/C=C/c6ccc(Cl)cc6)cc5)o4)ccc3[nH]2)cc1OC` [Compound 7q, 2-{5-[2-(3,4-Dimethoxyphenyl)-1 H-benzo[d]imidazol-5-yl]-1,3,4-oxadiazol-2-ylthio}-N-{4-[(E)-3-(4-chlorophenyl)acryloyl]phenyl}acetamide], for which the inhibition at 10 µM in assay [1] (setting [18]) is 10.6%; in assay [2] (setting [19]), 0%; in [3] (setting [20]), 0%; in assay [4] (setting [21]), 7.27%; in assay [5] (setting [22]), 24.2%; in assay [8] (setting [23]), 0%. Moreover, the IC50 in assay [6] worked out at 2.5 ± 0.2 µM; in assay [7], 3.9 ± 0.3 µM; in assay [9] it was 4.7 ± 0.3 µM; in assay [10] it was 3.4 ± 0.4 µM; in [11] it was 3.8 ± 0.5 µM; in assay [12] it was 3.02 ± 0.3 µM. For the same molecule, the IC50 in assay [13] was determined as 3.7 ± 0.5 µM.

For the molecule `COc1cc(-c2nc3cc(-c4nnc(SCC(=O)Nc5ccc(C(=O)/C=C/c6ccc(Cl)cc6)cc5)o4)ccc3[nH]2)cc(OC)c1OC` [Compound 7v, 2-{5-[2-(3,4,5-Trimethoxyphenyl)-1 H-benzo[d]imidazol-5-yl]-1,3,4-oxadiazol-2-ylthio}-N-{4-[(E)-3-(4-chlorophenyl)acryloyl]phenyl}acetamide], the inhibition at 10 µM in assay [1] (setting [18]) was 19.6%; in [2] (setting [19]), 18.5%; in assay [3] (setting [20]) it was 0%; in assay [4] (setting [21]) it was 16.2%; in assay [5] (setting [22]) it was 20.6%; in assay [8] (setting [23]) it was 0%. For the same molecule, the IC50 in assay [6] was 0.9 ± 0.1 µM; in assay [7], 2.8 ± 0.3 µM; in [9], 3.1 ± 0.2 µM; in [10], 2.45 ± 0.5 µM; in [11], 2.6 ± 0.2 µM; in assay [12], 2.2 ± 0.08 µM. Moreover, the IC50 in assay [13] was 2.9 ± 0.5 µM. Further, the “fold more selective towards LOX-IMVI cell line” value in assay [6] was determined as 97 fold.

What is called inhibition is the drop in the measured response relative to a control, in per cent. Broadly, the IC50 is the concentration that gives 50% inhibition.
